The values that follow come from ChEMBL document CHEMBL1122907, “Synthesis of 1-[[2-hydroxy-1-(hydroxymethyl)ethoxy] methyl]-5-benzyluracil and its amino analogue, new potent uridine phosphorylase inhibitors with high water solubility” (J Med Chem, 1985).

The test in a line: Binding affinity was determined against uridine phosphorylase in Sarcoma 180 cells. In kind it is cell-based.

The term Ki denotes a measure of affinity in units of concentration, obtained from inhibition or displacement. A low value points to a stronger hold on the target. In turn, `O=c1[nH]c(=O)n(COC(CO)CO)cc1Cc1ccccc1` displayed an inhibition constant Ki of 98 nM.
The value for `O=c1[nH]c(=O)n(COCCO)cc1Cc1ccccc1` was 98 nM; that for `NCC(CO)OCn1cc(Cc2ccccc2)c(=O)[nH]c1=O` (stereo not drawn) was 20 nM.
